Key:
[1] = test system: MV4-11 cells; test: MV4-11 cell proliferation assay (Alamar Blue); assay type: cell-based; settings: Homo sapiens, MV4-11, 72 h, 3 days incubation
Procedure, shortened: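 Viability readout: Alamar Blue fluorescence, ex 560/em 590 nm, 3 h after reagent addition, after 3-day exposure of 64,000 MV4-11 cells per well to a 9-point half-log compound series in 0.5% FBS Iscove's. IC50 from duplicate averages, as 50% proliferation inhibition relative to negative control.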

[2] = target: T1, FLT3 kinase (Homo sapiens, UniProt P36888); test: Competition binding assay, FLT3 Kd
T1 construct: made in house; host or cells: T7 phage display or HEK-293 cells
T1 sequence (P36888 27-993): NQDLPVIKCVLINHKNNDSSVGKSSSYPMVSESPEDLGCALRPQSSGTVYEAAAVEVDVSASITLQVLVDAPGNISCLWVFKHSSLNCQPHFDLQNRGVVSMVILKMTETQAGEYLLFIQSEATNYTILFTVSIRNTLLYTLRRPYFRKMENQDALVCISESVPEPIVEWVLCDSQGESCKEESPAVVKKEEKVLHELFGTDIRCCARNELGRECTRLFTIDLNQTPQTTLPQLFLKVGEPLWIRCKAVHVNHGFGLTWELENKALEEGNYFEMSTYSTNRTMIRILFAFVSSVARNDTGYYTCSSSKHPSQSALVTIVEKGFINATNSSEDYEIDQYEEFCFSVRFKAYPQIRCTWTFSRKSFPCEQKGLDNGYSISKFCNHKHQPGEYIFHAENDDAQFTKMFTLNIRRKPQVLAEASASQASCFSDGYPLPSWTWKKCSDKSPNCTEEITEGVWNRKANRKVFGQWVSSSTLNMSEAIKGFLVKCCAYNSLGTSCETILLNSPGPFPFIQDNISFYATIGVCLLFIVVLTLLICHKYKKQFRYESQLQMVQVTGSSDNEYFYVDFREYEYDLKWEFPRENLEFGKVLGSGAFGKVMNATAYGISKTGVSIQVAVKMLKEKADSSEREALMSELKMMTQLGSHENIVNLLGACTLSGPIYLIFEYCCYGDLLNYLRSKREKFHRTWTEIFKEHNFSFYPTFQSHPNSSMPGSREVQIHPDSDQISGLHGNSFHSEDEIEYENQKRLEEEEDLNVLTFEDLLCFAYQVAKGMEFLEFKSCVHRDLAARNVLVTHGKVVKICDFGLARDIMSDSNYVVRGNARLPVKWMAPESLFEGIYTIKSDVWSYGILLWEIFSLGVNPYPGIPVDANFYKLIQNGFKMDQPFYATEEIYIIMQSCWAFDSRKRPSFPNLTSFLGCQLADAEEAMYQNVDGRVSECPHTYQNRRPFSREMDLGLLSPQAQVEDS
Procedure, shortened: (§1)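 Steps: biotinylated ligand loaded on streptavidin magnetic beads 30 min; beads blocked with biotin; kinase, beads and compound combined 1 hour at room temperature; beads washed, eluted 30 min with 0.5 μM free ligand; eluted kinase measured by quantitative PCR. Kd derived from eleven-point threefold dilutions.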

[3] = target: T2, CSF-1R kinase (Homo sapiens, UniProt P07333); test: Competition binding assay, CSF-1R Kd
T2 construct: made in house; host or cells: T7 phage display or HEK-293 cells
T2 sequence (P07333 20-972): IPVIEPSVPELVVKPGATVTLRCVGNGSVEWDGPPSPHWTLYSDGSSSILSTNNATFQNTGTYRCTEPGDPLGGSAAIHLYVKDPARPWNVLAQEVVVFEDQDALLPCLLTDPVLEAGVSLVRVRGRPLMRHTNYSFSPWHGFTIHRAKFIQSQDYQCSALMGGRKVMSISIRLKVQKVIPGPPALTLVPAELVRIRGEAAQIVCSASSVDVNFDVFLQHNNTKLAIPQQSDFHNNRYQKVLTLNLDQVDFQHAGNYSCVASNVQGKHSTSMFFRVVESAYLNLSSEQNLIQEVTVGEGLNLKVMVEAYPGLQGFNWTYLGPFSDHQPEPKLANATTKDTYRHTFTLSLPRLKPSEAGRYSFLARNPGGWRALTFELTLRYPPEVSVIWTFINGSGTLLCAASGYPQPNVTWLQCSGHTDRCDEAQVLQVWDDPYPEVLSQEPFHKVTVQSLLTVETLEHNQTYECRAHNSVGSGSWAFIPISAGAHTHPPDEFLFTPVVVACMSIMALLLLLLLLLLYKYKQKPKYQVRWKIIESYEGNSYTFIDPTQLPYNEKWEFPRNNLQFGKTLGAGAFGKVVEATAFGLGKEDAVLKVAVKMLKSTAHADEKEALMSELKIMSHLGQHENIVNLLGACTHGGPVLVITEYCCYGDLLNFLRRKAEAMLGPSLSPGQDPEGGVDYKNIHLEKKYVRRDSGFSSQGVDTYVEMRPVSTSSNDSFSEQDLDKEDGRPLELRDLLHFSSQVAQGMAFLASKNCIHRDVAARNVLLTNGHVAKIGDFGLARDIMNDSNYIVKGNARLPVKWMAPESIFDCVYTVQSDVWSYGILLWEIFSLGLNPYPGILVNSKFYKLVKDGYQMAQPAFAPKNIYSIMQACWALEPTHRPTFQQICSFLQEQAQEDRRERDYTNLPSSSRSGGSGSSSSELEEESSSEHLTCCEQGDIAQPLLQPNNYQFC
Procedure, shortened: as §1

[4] = target: T3, KIT kinase (Homo sapiens, UniProt P10721); test: Competition binding assay, KIT Kd
T3 construct: made in house; host or cells: T7 phage display or HEK-293 cells
T3 sequence (P10721 26-976): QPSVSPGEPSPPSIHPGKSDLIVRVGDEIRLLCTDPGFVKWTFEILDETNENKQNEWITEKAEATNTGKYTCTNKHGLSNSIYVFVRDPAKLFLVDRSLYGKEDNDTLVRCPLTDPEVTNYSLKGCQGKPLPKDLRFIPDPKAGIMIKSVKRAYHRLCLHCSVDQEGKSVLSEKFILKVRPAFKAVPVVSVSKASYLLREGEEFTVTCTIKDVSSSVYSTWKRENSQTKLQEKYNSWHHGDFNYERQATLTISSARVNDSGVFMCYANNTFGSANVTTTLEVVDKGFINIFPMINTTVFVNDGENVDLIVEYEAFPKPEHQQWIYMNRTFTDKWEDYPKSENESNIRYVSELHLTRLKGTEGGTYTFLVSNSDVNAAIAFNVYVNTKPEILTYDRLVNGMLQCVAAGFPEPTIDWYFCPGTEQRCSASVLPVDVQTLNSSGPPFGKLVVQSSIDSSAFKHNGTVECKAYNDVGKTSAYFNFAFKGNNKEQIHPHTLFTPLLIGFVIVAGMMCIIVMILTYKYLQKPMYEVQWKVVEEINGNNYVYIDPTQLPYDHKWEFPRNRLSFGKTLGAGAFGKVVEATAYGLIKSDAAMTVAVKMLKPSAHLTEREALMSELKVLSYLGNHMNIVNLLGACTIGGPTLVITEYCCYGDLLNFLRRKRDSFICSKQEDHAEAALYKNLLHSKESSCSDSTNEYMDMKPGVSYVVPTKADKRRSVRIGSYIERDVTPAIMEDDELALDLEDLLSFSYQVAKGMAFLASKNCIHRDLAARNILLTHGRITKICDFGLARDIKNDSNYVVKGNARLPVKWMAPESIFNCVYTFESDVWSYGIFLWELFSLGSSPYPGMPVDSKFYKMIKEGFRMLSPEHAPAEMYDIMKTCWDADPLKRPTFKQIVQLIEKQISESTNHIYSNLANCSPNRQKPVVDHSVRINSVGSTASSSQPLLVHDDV
Procedure, shortened: as §1

[5] = target: kinase panel containing either 359 or 386 distinct kinases; test: Selectivity score S10 from competition binding against a panel of kinases; settings: compounds at 10 μM; for Kinase specificty: S(10)-359 panel: panel of 359 distinct kinases; for Kinase specificty: S(10)-386 panel: panel of 386 distinct kinases
Procedure, shortened: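 Compounds were tested at 10 μM in competition binding against T7 phage-fused or HEK-293-expressed DNA-tagged kinases with immobilized affinity ligands, 1 h at room temperature. Bound kinase was quantified by qPCR as percent of DMSO control; S10 is the fraction of distinct kinases (mutants excluded) with POC below 10.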

IC50 [1] [µM] | Kd [2] [µM] | Kd [3] [µM] | Kd [4] [µM] | Kinase specificty: S(10)-359 panel [5] | Kinase specificty: S(10)-386 panel [5] | Structure (SMILES)
0.1 to 0.5 | 0.001 to 0.01 | 0.01 to 0.1 | 0.001 to 0.01 | A (A≦0.1) |  | CC(C)(C)Nc1ncc(-c2ccc(NC(=O)Nc3cc(C(C)(C)C)on3)nc2)cn1 [Example 62, 1-(5-(2-(tert-butylamino)pyrimidin-5-yl)pyridin-2-yl)-3-(5-tert-butylisoxazol-3-yl)urea]
0.01 to 0.1 | ≤ 0.001 | ≤ 0.01 | ≤ 0.001 | B (0.1<B≦0.2 nM) |  | CC(C)(C)c1cc(NC(=O)Nc2ccc(-c3cnc(NC4CCOCC4)nc3)cn2)no1 [Example 63, 1-(5-tert-butylisoxazol-3-yl)-3-(5-(2-(tetrahydro-2H-pyran-4-ylamino)pyrimidin-5-yl)pyridin-2-yl)urea]
0.01 to 0.1 | ≤ 0.001 | ≤ 0.01 | ≤ 0.001 | B (0.1<B≦0.2 nM) |  | CC(C)(C)c1cc(NC(=O)Nc2ccc(-c3cnc(NC4CC4)nc3)cn2)no1 [Example 64, 1-(5-tert-butylisoxazol-3-yl)-3-[5-(2-cyclopropylaminopyrimidin-5-yl)-pyridin-2-yl]-urea]
0.01 to 0.1 | ≤ 0.001 | ≤ 0.01 | ≤ 0.001 | B (0.1<B≦0.2 nM) |  | CC(C)Nc1ncc(-c2ccc(NC(=O)Nc3cc(C(C)(C)C)on3)nc2)cn1 [Example 65, 1-(5-tert-butylisoxazol-3-yl)-3-(5-(2-(isopropylamino)pyrimidin-5-yl)pyridin-2-yl)urea]
0.1 to 0.5 | 0.001 to 0.01 | ≤ 0.01 | ≤ 0.001 | A (A≦0.1) |  | O=C(Cc1cccc(C(F)(F)F)c1)Nc1ccc(-c2cnc(NC3CC3)nc2)cn1 [Example 66, N-(5-(2-(cyclopropylamino)pyrimidin-5-yl)pyridine-2-yl)-2-(3-(trifluoromethyl)phenyl)acetamide]
0.01 to 0.1 | 0.001 to 0.01 | 0.01 to 0.1 | ≤ 0.001 | A (A≦0.1) |  | CC(C)Nc1ncc(-c2ccc(NC(=O)Cc3cccc(C(F)(F)F)c3)nc2)cn1 [Example 67, N-(5-(2-(isopropylamino)pyrimidin-5-yl)pyridin-2-yl)-2-(3-(trifluoromethyl)phenyl)acetamide]
≤ 0.001 | ≤ 0.001 | ≤ 0.01 | 0.001 to 0.01 |  | A (A≦0.1) | Nc1ccc(-c2ccc(CC(=O)Nc3cc(C4(C(F)(F)F)CC4)on3)cc2)cn1 [Example 73, 2-(4-(6-aminopyridin-3-yl)phenyl)-N-(5-(1-(trifluoromethyl)cyclopropyl)isoxazol-3-yl)acetamide]
≤ 0.001 | ≤ 0.001 | ≤ 0.01 | 0.001 to 0.01 |  | B (0.1<B≦0.2 nM) | CC(C)(C)c1cc(NC(=O)Cc2ccc(-c3ccc(N)nc3)cc2F)no1 [Example 78, 2-(4-(6-aminopyridin-3-yl)-2-fluorophenyl)-N-(5-tert-butylisoxazol-3-yl)acetamide]
0.001 to 0.01 | ≤ 0.001 | ≤ 0.01 | 0.001 to 0.01 |  | B (0.1<B≦0.2 nM) | CC(C)(C)c1cc(NC(=O)Cc2ccc(-c3ccc(NCCS(C)(=O)=O)nc3)cc2)no1.CS(=O)(=O)O [Example 92, 5-(4-(2-(5-tert-butylisoxazol-3-ylamino)-2-oxoethyl)phenyl)-N-(2-(methylsulfonyl)ethyl)pyridin-2-aminium methanesulfonate]
≤ 0.001 | 0.001 to 0.01 | ≤ 0.01 | 0.001 to 0.01 |  | B (0.1<B≦0.2 nM) | CC(C)(C)c1cc(NC(=O)Cc2ccc(-c3cnc(N)c(F)c3)cc2)no1.CS(=O)(=O)O [Example 94, 5-(4-(2-(5-tert-butylisoxazol-3-ylamino)-2-oxoethyl)phenyl)-3-fluoropyridin-2-aminium methanesulfonate]
≤ 0.001 | ≤ 0.001 | ≤ 0.01 | 0.001 to 0.01 |  | A (A≦0.1) | CC(C)(C)c1cc(NC(=O)Cc2ccc(-c3ccc(N)nc3F)cc2)no1.CS(=O)(=O)O [Example 95, 5-(4-(2-(5-tert-butylisoxazol-3-ylamino)-2-oxoethyl)phenyl)-6-fluoropyridin-2-aminium methanesulfonate]
0.001 to 0.01 | ≤ 0.001 | ≤ 0.01 | ≤ 0.001 |  | B (0.1<B≦0.2 nM) | CC(C)(C)c1cc(NC(=O)Cc2ccc(-c3ccc(NCCN4CCOCC4)nc3)cc2)on1.CS(=O)(=O)O [Example 96, 5-(4-(2-(3-tert-butylisoxazol-5-ylamino)-2-oxoethyl)phenyl)-N-(2-morpholinoethyl)pyridin-2-aminium methanesulfonate]
0.001 to 0.01 | 0.001 to 0.01 | ≤ 0.01 | 0.001 to 0.01 |  | A (A≦0.1) | CC(C)(CF)c1cc(NC(=O)Nc2ccc(-c3ccc(N)nc3)cc2)on1 [Example 97, 1-(4-(6-aminopyridin-3-yl)phenyl)-3-(3-(1-fluoro-2-methylpropan-2-yl)isoxazol-5-yl)urea]
0.01 to 0.1 | 0.001 to 0.01 | ≤ 0.01 | 0.001 to 0.01 |  | A (A≦0.1) | CC1(c2cc(NC(=O)Nc3ccc(-c4ccc(N)nc4)cc3)no2)COC1.CS(=O)(=O)O [Example 98, 5-(4-(3-(5-(3-methyloxetan-3-yl)isoxazol-3-yl)ureido)phenyl)pyridin-2-aminium methanesulfonate]
0.001 to 0.01 | ≤ 0.001 | ≤ 0.01 | 0.001 to 0.01 |  | A (A≦0.1) | CC1(c2cc(NC(=O)Cc3ccc(-c4ccc(N)nc4)cc3)no2)COC1.CS(=O)(=O)O [Example 99, 5-(4-(2-((5-(3-methyloxetan-3-yl)isoxazol-3-yl)amino)-2-oxoethyl)phenyl)pyridin-2-aminium methanesulfonate]
0.001 to 0.01 | ≤ 0.001 | ≤ 0.01 | ≤ 0.001 |  | A (A≦0.1) | CC1(c2cc(NC(=O)Cc3ccc(-c4ccc(N)nc4)cc3)no2)CC1.CS(=O)(=O)O [Example 100, 5-(4-(2-(5-(1-methylcyclopropyl)isoxazol-3-ylamino)-2-oxoethyl)phenyl)pyridin-2-aminium methanesulfonate]
0.001 to 0.01 | ≤ 0.001 | ≤ 0.01 | ≤ 0.001 |  | A (A≦0.1) | CC(C)(F)c1cc(NC(=O)Cc2ccc(-c3ccc(N)nc3)cc2)on1.CS(=O)(=O)O [Example 101, 5-(4-(2-(3-(2-fluoropropan-2-yl)isoxazol-5-ylamino)-2-oxoethyl)phenyl)pyridin-2-aminium methanesulfonate]
≤ 0.001 | ≤ 0.001 | ≤ 0.01 | 0.001 to 0.01 |  | B (0.1<B≦0.2 nM) | CC(=O)O.CC1(c2cc(NC(=O)Cc3ccc(-c4ccc(N)nc4)cc3)no2)CC1(F)F (centres unmarked) [Example 102, 5-(4-(2-((5-(2,2-difluoro-1-methylcyclopropyl)isoxazol-3-yl)amino)-2-oxoethyl)phenyl)pyridin-2-aminium acetate]
≤ 0.001 | ≤ 0.001 | ≤ 0.01 | ≤ 0.001 |  | A (A≦0.1) | CC(=O)O.Nc1ccc(-c2ccc(CC(=O)Nc3cc(C4(CF)CC4)on3)cc2)cn1 [Example 103, 5-(4-(2-((5-(1-(fluoromethyl)cyclopropyl)isoxazol-3-yl)amino)-2-oxoethyl)phenyl)pyridin-2-aminium acetate]
